The supplement of paper PMC10627819

Tests used:
S. aureus Newman [1] = experiment: fitness (endpoint OD595 vs no drug) (fraction); higher = more growth
In short: (§1)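 Fitness is computed from the optical density at which cultures reach stationary phase, divided by the robust mean of no-drug control wells. Any value above 1 is set to 1. Cultures started at OD595 0.01 in 384-well plates with TSB, LB Lennox or CY at 37 °C, and OD595 was read every 30 min for 14 h against a first-reading background.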

S. pneumoniae D39V [2] = experiment: as above
In short: as §1

S. aureus DSM 20231 [3] = experiment: as above
In short: as §1

S. aureus Newman [4] = experiment: Bliss interaction score (quartile over a dose matrix) (fitness difference); higher = more antagonism (negative = synergy)
In short: (§2)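 The Bliss score was calculated by subtracting the expected fitness, the product of single-drug values, from the observed fitness. OD595 at entry into stationary phase, over the plate's robust no-drug mean and capped at 1, served as the fitness readout. Single-drug values were inferred from combination data, and scores are summarised by quartiles across technical, biological and donor/recipient replicates.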

S. pneumoniae D39V [5] = experiment: as above
In short: as §2

B. subtilis 168 = experiment: as above
In short: as §2

S. aureus DSM 20231 [6] = experiment: as above
In short: as §2
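For Bliss interaction score (quartile over a dose matrix) in this document: first quartile when negative (synergy) and third quartile when positive (antagonism).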

Cn1nnc(-c2ccc(-c3ccc(N4C[C@H](CO)OC4=O)cc3F)cn2)n1 [Tedizolid] + CN[C@H](CC(C)C)C(=O)N[C@H]1C(=O)N[C@@H](CC(N)=O)C(=O)N[C@H]2C(=O)N[C@H]3C(=O)N[C@H](C(=O)N[C@H](C(=O)O)c4cc(O)cc(O)c4-c4cc3ccc4O)[C@H](O)c3ccc(c(Cl)c3)Oc3cc2cc(c3O[C@@H]2O[C@H](CO)[C@@H](O)[C@H](O)[C@H]2O[C@H]2C[C@](C)(N)[C@H](O)[C@H](C)O2)Oc2ccc(cc2Cl)[C@H]1O [Vancomycin]
fitness
Conditions | first compound 0.03125 µg/mL | first compound 0.0625 µg/mL | first compound 0.125 µg/mL | first compound 0.25 µg/mL | first compound 0.5 µg/mL
S. aureus DSM 20231 [3], partner 0.1875 µg/mL | – | 0.89 | 0.754 | 0.348 | –
S. aureus DSM 20231 [3], partner 0.375 µg/mL | – | 0.891 | 0.723 | 0.377 | –
S. aureus DSM 20231 [3], partner 0.75 µg/mL | – | 0.924 | 0.867 | 0.397 | –
S. aureus Newman [1], partner 0.1875 µg/mL | – | 0.977 | 0.87 | – | –
S. aureus Newman [1], partner 0.375 µg/mL | – | 0.966 | 0.845 | – | –
S. aureus Newman [1], partner 0.75 µg/mL | – | 0.939 | 0.824 | – | –
S. pneumoniae D39V [2], partner 0.03125 µg/mL | – | – | 0.809 | 0.73 | 0.482
S. pneumoniae D39V [2], partner 0.0625 µg/mL | – | – | 0.819 | 0.718 | 0.473
S. pneumoniae D39V [2], partner 0.125 µg/mL | 0.976 | 0.968 | 0.833 | – | –

Conditions | Bliss interaction score
B. subtilis 168 | 0.0605
S. aureus DSM 20231 [6] | -0.0656
S. aureus Newman [4] | 0.046
S. pneumoniae D39V [5] | 0.107

CC1(C)S[C@@H]2[C@H](NC(=O)[C@H](N)c3ccc(O)cc3)C(=O)N2[C@H]1C(=O)O [Amoxicillin] + CN[C@H](CC(C)C)C(=O)N[C@H]1C(=O)N[C@@H](CC(N)=O)C(=O)N[C@H]2C(=O)N[C@H]3C(=O)N[C@H](C(=O)N[C@H](C(=O)O)c4cc(O)cc(O)c4-c4cc3ccc4O)[C@H](O)c3ccc(c(Cl)c3)Oc3cc2cc(c3O[C@@H]2O[C@H](CO)[C@@H](O)[C@H](O)[C@H]2O[C@H]2C[C@](C)(N)[C@H](O)[C@H](C)O2)Oc2ccc(cc2Cl)[C@H]1O [Vancomycin]
Conditions | fitness
S. aureus DSM 20231 [3], first compound 0.0625 µg/mL, partner 0.1875 µg/mL | 0.605
S. aureus DSM 20231 [3], first compound 0.0625 µg/mL, partner 0.375 µg/mL | 0.667
S. aureus DSM 20231 [3], first compound 0.125 µg/mL, partner 0.1875 µg/mL | 0.397
S. aureus DSM 20231 [3], first compound 0.125 µg/mL, partner 0.375 µg/mL | 0.452
S. aureus DSM 20231 [3], first compound 0.25 µg/mL, partner 0.1875 µg/mL | 0.125
S. aureus DSM 20231 [3], first compound 0.25 µg/mL, partner 0.375 µg/mL | 0.15
S. aureus DSM 20231 [3], first compound 0.25 µg/mL, partner 0.75 µg/mL | 0.176
S. aureus DSM 20231 [3], first compound 0.5 µg/mL, partner 0.1875 µg/mL | 0.0104
S. aureus DSM 20231 [3], first compound 0.5 µg/mL, partner 0.375 µg/mL | 0.0135
S. aureus DSM 20231 [3], first compound 0.5 µg/mL, partner 0.75 µg/mL | 0.0165
S. aureus Newman [1], first compound 0.0625 µg/mL, partner 0.1875 µg/mL | 0.916
S. aureus Newman [1], first compound 0.0625 µg/mL, partner 0.375 µg/mL | 0.914
S. aureus Newman [1], first compound 0.0625 µg/mL, partner 0.75 µg/mL | 0.879
S. aureus Newman [1], first compound 0.125 µg/mL, partner 0.1875 µg/mL | 0.887
S. aureus Newman [1], first compound 0.125 µg/mL, partner 0.375 µg/mL | 0.875
S. aureus Newman [1], first compound 0.125 µg/mL, partner 0.75 µg/mL | 0.877
S. aureus Newman [1], first compound 0.25 µg/mL, partner 0.1875 µg/mL | 0.89
S. aureus Newman [1], first compound 0.25 µg/mL, partner 0.375 µg/mL | 0.866
S. aureus Newman [1], first compound 0.25 µg/mL, partner 0.75 µg/mL | 0.811
S. pneumoniae D39V [2], first compound 0.0008 µg/mL, partner 0.03125 µg/mL | 0.988
S. pneumoniae D39V [2], first compound 0.0008 µg/mL, partner 0.0625 µg/mL | 0.871
S. pneumoniae D39V [2], first compound 0.0008 µg/mL, partner 0.125 µg/mL | 0.894
S. pneumoniae D39V [2], first compound 0.0015 µg/mL, partner 0.03125 µg/mL | 0.977
S. pneumoniae D39V [2], first compound 0.0015 µg/mL, partner 0.0625 µg/mL | 0.852
S. pneumoniae D39V [2], first compound 0.0015 µg/mL, partner 0.125 µg/mL | 0.913
S. pneumoniae D39V [2], first compound 0.0015 µg/mL, partner 0.25 µg/mL | 0.869
S. pneumoniae D39V [2], first compound 0.0015 µg/mL, partner 0.5 µg/mL | 0.299
S. pneumoniae D39V [2], first compound 0.003 µg/mL, partner 0.03125 µg/mL | 0.861
S. pneumoniae D39V [2], first compound 0.003 µg/mL, partner 0.0625 µg/mL | 0.762
S. pneumoniae D39V [2], first compound 0.003 µg/mL, partner 0.125 µg/mL | 0.783
S. pneumoniae D39V [2], first compound 0.003 µg/mL, partner 0.25 µg/mL | 0.742
S. pneumoniae D39V [2], first compound 0.003 µg/mL, partner 0.5 µg/mL | 0.289

fitness, S. pneumoniae D39V [2], one replicate
Conditions | partner 0.125 µg/mL | partner 0.25 µg/mL | partner 0.5 µg/mL
first compound 0.0008 µg/mL | – | 0.928 | 0.33
first compound 0.006 µg/mL | 0.234 | 0.13 | 0.0321

Conditions | Bliss interaction score
B. subtilis 168 | -0.0442
S. aureus DSM 20231 [6] | 0.074
S. aureus Newman [4] | 0.0681
S. pneumoniae D39V [5] | 0.101

CC1(C)S[C@@H]2[C@H](NC(=O)[C@H](N)c3ccc(O)cc3)C(=O)N2[C@H]1C(=O)O [Amoxicillin] + Cc1cc(NS(=O)(=O)c2ccc(N)cc2)no1 [Sulfamethoxazol]
fitness
Conditions | partner 1 µg/mL | partner 2 µg/mL | partner 4 µg/mL
S. aureus DSM 20231 [3], first compound 0.0625 µg/mL | 0.445 | 0.506 | 0.522
S. aureus DSM 20231 [3], first compound 0.125 µg/mL | 0.376 | – | –
S. aureus DSM 20231 [3], first compound 0.25 µg/mL | 0.0292 | 0.0368 | 0.035
S. aureus Newman [1], first compound 0.0625 µg/mL | 0.878 | 0.88 | 0.883
S. aureus Newman [1], first compound 0.125 µg/mL | 0.858 | 0.876 | 0.876
S. aureus Newman [1], first compound 0.25 µg/mL | 0.81 | 0.847 | 0.844
S. pneumoniae D39V [2], first compound 0.0008 µg/mL | 0.936 | 0.972 | 0.926
S. pneumoniae D39V [2], first compound 0.0015 µg/mL | 0.882 | 0.928 | 0.878
S. pneumoniae D39V [2], first compound 0.003 µg/mL | 0.87 | 0.883 | 0.875

fitness, one replicate
Conditions | partner 1 µg/mL | partner 2 µg/mL | partner 4 µg/mL | partner 8 µg/mL
S. aureus DSM 20231 [3], first compound 0.5 µg/mL | 0.015 | 0.0516 | 0.0038 | –
S. aureus Newman [1], first compound 0.125 µg/mL | – | – | – | 0.948
S. aureus Newman [1], first compound 0.25 µg/mL | – | – | – | 0.938
S. aureus Newman [1], first compound 0.5 µg/mL | – | 0.812 | 0.852 | 0.84
S. pneumoniae D39V [2], first compound 0.006 µg/mL | 0.368 | 0.423 | 0.388 | –

Conditions | Bliss interaction score
B. subtilis 168 | -0.0805
S. aureus DSM 20231 [6] | -0.0441
S. aureus Newman [4] | -0.0589
S. pneumoniae D39V [5] | -0.09
